The target of one test is T1, Y5 receptor (Homo sapiens, UniProt Q15761).
T1 construct: host or cells: unnamed cell line expressing the Y5 sub-type
T1 sequence (Q15761 1-445): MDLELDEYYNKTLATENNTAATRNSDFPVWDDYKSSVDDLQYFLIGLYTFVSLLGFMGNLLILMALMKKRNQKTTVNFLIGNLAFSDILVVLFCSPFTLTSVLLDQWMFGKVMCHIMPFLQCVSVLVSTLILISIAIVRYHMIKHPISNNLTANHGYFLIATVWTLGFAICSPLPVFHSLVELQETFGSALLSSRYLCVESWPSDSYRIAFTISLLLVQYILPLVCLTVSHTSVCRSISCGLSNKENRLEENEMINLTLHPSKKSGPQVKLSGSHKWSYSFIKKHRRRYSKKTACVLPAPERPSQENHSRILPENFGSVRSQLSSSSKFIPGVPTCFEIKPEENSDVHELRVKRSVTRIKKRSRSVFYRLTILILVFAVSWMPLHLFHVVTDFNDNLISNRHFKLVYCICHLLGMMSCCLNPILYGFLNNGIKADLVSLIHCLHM
In words: In vitro affinity for NPY receptors, competition binding with [125I]-PYY on cell line expressing the Y5 sub-type. The note with it: radioligand [125I]-PYY 15 to 65 pM. The protocol:
The capacity of the compounds of the invention to bind to NPY receptors was measured on various cell lines, each expressing one of the receptor sub-types studied. Competition binding experiments were carried out using the peptide [^125 I]-PYY as radioligand at concentrations ranging from 15 to 65 pM. The non-specific fraction is measured in the presence of a concentration of 1 μM NPY. The cells are incubated for a period ranging from 1 to 2 hours depending upon the lines, and the radioactivity is collected after filtration over a GF/C filter treated with 0.1% PEI, before being measured.
The results are expressed as IC50.

A further test deals with obese ob/ob mouse. In words: Effect on food intake and weight development in the obese ob/ob mouse. To be noted: 5 mg/kg IP, twice daily. The format is in vivo, mouse (female ob/ob C57B1/6J). The protocol: The compounds of the invention were administered in vivo to the obese ob/ob mouse in order to evaluate their influence on food intake and weight development. The animals used are 13- to 18-week-old female ob/ob C57B1/6J mice. They are divided into groups each comprising 4 animals per cage, the cages being fitted with a grating floor, and the mice having free access to food.
Before the experiments, the animals are conditioned for a period ranging from 2 to 3 weeks until their food consumption has stabilised. The experiments may be summarised as follows:
D -14 to D -7: conditioning
D -7 to D -3: measurement of the basal food intake
D0 to D +3: animals treated twice daily, the control groups being given the carrier D0 to D +4: daily measurement of food intake and body weight
The test products are dissolved, immediately before use, in water, 0.9% sodium chloride, propylene glycol or dimethyl sulphoxide, depending upon their solubility, and are administered intraperitoneally (IP), in a volume of 2.5 ml/kg.
The parameters measured are the weight of the feed troughs containing the food and the body weight.
The results are expressed as: percentage variation in food intake under treatment compared with the basal food intake; percentage variation in body weight between the first and last day of treatment.

Structures are written as SMILES.

What is called IC50 is the concentration needed to halve the response being measured.

On Y5 receptor, `O=C(NNC(=O)C1CCC(CNS(=O)(=O)c2ccc3ccccc3c2)CC1)c1ccccc1` (stereo not drawn) [Example 44, N2-({4-[(2-Benzoylhydrazino)carbonyl]cyclohexyl}methyl)-2-naphthalenesulphonamide] came in with an IC50 of 14.5 nM. The “Food intake % variation (D1), Treated (compared with the basal food intake)” value in the test on obese ob/ob mouse (D1, control -25.3) was -75.2%. Also, the “Body weight % variation (D4/D0)” value in the test on obese ob/ob mouse (D4/D0) is -6.0%.

Values taken from patent US6271247A, “Hydrazide compounds” (Adir et Compagnie, priority 1998, dated 2001).
